The text below walks through data of patent US20200079786A1, “ANALOGS OF […] AS SOLUBLE EPOXIDE HYDROLASE INHIBITORS” (UNIVERSITAT DE BARCELONA, priority 2015, published 2020).

≈ marks a conversion by molar mass, not a printed value.

Data set [1] can be described thus: Determination of water solubility (nephelometry). Conditions: aqueous with cosolvent or surfactant or cyclodextrin, kinetic from dmso stock; 5% DMSO: 95% PBS buffer, 37° C., read after 2 and 4 h; read-out: S (solubility). The class given is physicochemical.
Data set [2] can be described thus: Determination of cytotoxicity in THLE-2 cells (ATP viability). In kind it is cell-based. Conditions: human; THLE-2 cells, 72 h exposure, 0-100 μM; read-out: LC50 (μM), cytotoxicity. As to the method: Cytotoxic effects of assayed compounds were tested using the immortalized human liver cell line THLE-2 (ATCC CRL-2706). Cells were cultured in BEGM medium (Clonetics # CC-4175) containing all the supplements kit except additional EGF and G418. Medium was completed by adding 0.7 μg/mL phosphoethanolamine, 0.5 ng/mL epidermal growth factor, antibiotics (penicillin and streptomycin) and 10% fetal bovine serum (FBS).
Cells were plated in 96-well black microplates at 10,000 cells/well density and were incubated at 37° C. (5% CO2, 95% humidity) for 24 h to allow the cells to adhere and form a monolayer. Test compounds were solubilized in 100% DMSO at a concentration curve way and then diluted with cell culture medium containing 10% DMSO. The final concentrations of the test compounds (1% DMSO) ranged from 0-100 μM in a final volume of 200 μL. Microplates were maintained at 37° C. (5% CO2, 95% humidity) during 3 days. Following this 72 h exposure to test compounds, cell viability in each well was determined by measuring the concentration of cellular adenosine triphosphate (ATP) using the ATP1Step Kit as described by the manufacturer (Perkin-Elmer). In a typical procedure, 50 μL of cell reagent is added to all wells of each test plate followed by incubation for 10 min at room temperature on an orbital shaker. ATP concentration was determined by reading chemical luminescence using the Envision plate reader (PerkinElmer). The percentage of viable cells relative to the non-drug treated controls was determined for each well and LC50 values were calculated as concentrations projected to kill 50% of the cells following a 72 h exposure, an average of minimum two independent replicates.

Data set [3] in a line: Parallel artificial membrane permeation assay for blood-brain barrier (PAMPA-BBB). The class given is in vitro ADME, porcine. Conditions: PBS:EtOH (70:30). How it is done: The in vitro permeability (Pe) of the test compounds through lipid extract of porcine brain membrane was determined. Assayed compounds were tested using a mixture of PBS:EtOH (70:30). […] From this equation and taking into account the limits established by Di et al. for BBB permeation, the ranges of permeability were established, as follows.
Background: In PAMPA a lipid-coated filter parts donor from acceptor wells.

In data set [4] the target is T1, CYP1A2 (Homo sapiens, UniProt P05177).
T1 sequence (P05177 1-516): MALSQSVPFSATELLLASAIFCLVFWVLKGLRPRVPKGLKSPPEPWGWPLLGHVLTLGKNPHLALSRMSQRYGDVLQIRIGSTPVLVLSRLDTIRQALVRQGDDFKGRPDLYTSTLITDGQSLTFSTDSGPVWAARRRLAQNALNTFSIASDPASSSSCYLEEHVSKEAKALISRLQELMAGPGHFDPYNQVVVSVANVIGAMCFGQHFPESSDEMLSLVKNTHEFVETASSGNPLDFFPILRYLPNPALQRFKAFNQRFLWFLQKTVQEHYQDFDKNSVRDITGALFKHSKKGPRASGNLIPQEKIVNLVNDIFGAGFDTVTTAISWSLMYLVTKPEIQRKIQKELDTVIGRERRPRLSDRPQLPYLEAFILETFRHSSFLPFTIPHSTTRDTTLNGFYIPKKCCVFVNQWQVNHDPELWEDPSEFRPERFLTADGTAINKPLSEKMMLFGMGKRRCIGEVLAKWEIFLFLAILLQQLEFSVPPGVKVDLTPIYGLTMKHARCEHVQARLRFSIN
Nature of the data set: Inhibition of human cytochrome P450 CYP1A2. Conditions: human cytochrome P450 enzyme. In kind it is in vitro ADME. An excerpt:
(§1) The epoxidation of arachidonic acid (AA) by selected cytochrome P450 epoxygenases generates epoxyeicosatrienoic acids (EETs). These EETs show anti-inflammatory, antihypertensive, analgesic, angiogenic, and antiatherosclerotic effects in rodents and humans. sEH converts EETs to their corresponding dihydroxyeicosatrienoic acids (DHETs), whereby the biological effects of EETs are diminished, eliminated, or altered. Among the P450 enzymes, it is known that CYP2C19 and CYP1A2 have the highest formation rate of EETs from AA (cf. A. A. El-Sherbeni et al. “Repurposing resveratrol and fluconazole to modulate human cytrochrome P450-mediated arachidonic acid metabolites”, Molecular Pharmaceutics 2016, vol. 13, pp. 1278-1288). For this reason, a highly desirable aspect of any new sEH inhibitor is selectivity in front of CYP2C19 and CYP1A2.

For data set [5], the target named is T2, sEH in AR42j cells (Rattus norvegicus, UniProt P80299).
T2 sequence (P80299 1-554): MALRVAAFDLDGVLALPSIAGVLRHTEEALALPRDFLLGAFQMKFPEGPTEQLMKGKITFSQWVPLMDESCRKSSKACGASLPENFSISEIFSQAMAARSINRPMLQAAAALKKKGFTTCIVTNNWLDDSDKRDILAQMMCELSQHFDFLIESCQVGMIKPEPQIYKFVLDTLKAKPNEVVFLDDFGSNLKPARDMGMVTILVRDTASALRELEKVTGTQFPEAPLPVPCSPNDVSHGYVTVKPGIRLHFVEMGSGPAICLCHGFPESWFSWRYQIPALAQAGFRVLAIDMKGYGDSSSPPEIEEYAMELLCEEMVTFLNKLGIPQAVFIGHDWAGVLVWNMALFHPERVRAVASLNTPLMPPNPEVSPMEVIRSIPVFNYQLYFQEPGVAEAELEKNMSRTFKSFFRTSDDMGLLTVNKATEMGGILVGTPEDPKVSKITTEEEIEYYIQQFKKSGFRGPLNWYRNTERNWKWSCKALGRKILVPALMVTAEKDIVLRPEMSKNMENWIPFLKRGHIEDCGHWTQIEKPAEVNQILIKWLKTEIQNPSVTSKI
In words: In vitro determination of sEH inhibition activity in AR42j cells (cell-based fluorescent assay). Conditions: AR-42J, read-out: % Inhn. ± SE (100 μM), sEH inhibition activity in cell culture.
Description: Solutions Preparation: • Assay buffer 1×: add 10 mL of the CBA-Buffer (10×) to 90 mL of distilled water. • Lysis Buffer: add 50 μL of the CBA Digitonin Solution to 10 mL of Buffer Assay 1×. • Substrate Solution: dilute 10 μL of CBA sEH Substrate with 10 mL of Assay Buffer 1×. • Standards: preparation of 7 concentrations of CBA 6-methoxy-2-naphtalaldehyde from 0 until 2 M with Assay Buffer 1×. • sEH Positive Control: Prepare another stock A (1 μg/ml: 1 μL CBA sEH Positive Control+1 mL Assay Buffer 1×). From the already prepared stock A, prepare 250 μL of sEH (10 ng/mL): 2.5 μL sEH stock A+250 μL Assay Buffer 1×). • sEH Inhibitor AUDA: dilute 10 μL CBA sEH Inhibitor with 500 ml Assay Buffer 1×. • Inhibitors dissolved in DMSO at appropriated concentrations.
Seed cells in a 96-well plate at a density of (2×10^4)-(5×10^4) cells/well in 100 μL of culture medium with or without compounds to be tested. Incubation of the cells in a CO2 incubator at 37° C. for 48 hours. Aspirate the culture medium and add 200 μL of Assay Buffer 1× to each well. Centrifuge the plate at 800 rmp for 5 minutes. Aspirate the supernatant and add 100 μL of Lysis Buffer to each well. Incubate with gentle shaking on an orbital shaker for 30 minutes at room temperature. Centrifuge the plate at 3000 rpm for 20 minutes at 4° C. Transfer 90 μL of the supernatants to the 96-Well Solid Plate (black). Add 10 μL Assay Buffer 1× or 10 μL of the AUDA solution to appropriate wells. For positive control wells, add 100 μL of the 10 ng/mL sEH Positive Control to two wells. Add 200 μL of 6-methoxy-2-Naphthaldehyde Standards to corresponding wells of the black plate. Add 100 μL of the sEH Substrate Solution to each well, except the standards. Incubate the plate at 37° C. for 30 minutes. […] The intensity of fluorescence was used to analyze and calculate inhibition percentages, shown in the Table as average of minimum three independent replicates.

Data set [6] concerns the target CYP2C19 (Homo sapiens, UniProt P33261). In words: Inhibition of human cytochrome P450 CYP2C19. In kind it is in vitro ADME. Conditions: human cytochrome P450 enzyme.
Source text: as §1

Data set [7] deals with Huh-7 cells. In words: Amelioration of palmitate-induced ER stress: ATF3, BiP and CHOP mRNA by real-time PCR. The class given is cell-based. Conditions: palmitate 0.5 mM + inhibitor 1 μM, 48 h; for Level of CHOP mRNA: control (CT) = 100.0, PAL alone 224.5; for Level of BiP mRNA: control (CT) = 100.0, PAL alone 242.9; for Level of ATF3 mRNA: control (CT) = 100.0, PAL alone 585.5. How it is done: Huh-7 cells were maintained in a humid atmosphere of 5% CO2 at 37° C. in high glucose (25 mM) Dulbecco's modified Eagle's medium supplemented with 10% heat-inactivated fetal bovine serum, 1% of penicillin/streptomycin (10.000 units/mL of penicillin and 10.000 μg/mL of streptomycin) and 1% of amphotericin B (250 μg/mL).
Huh-7 cells were serum-starved overnight prior treatment. […] For RNA extraction, cells were pre-treated with the inhibitors (final concentration 1 μM) for 1 hour before treatment with palmitate (final concentration 0.5 mM) and inhibitors (final concentration 1 μM). For each condition, at least 3 replicates were performed. Following 48 hours of incubation, RNA were extracted as described below.
Total RNA in hepatocytes was harvested by TRIsure (Bioline) according to the manufacturer's instructions. The extracted RNA was dissolved in RNase-free water and concentrations of total RNA were quantified using a NanoDrop 2000c spectrophotometer (Thermo Scientific). First-stranded cDNA was synthesized from 0.5 μg total RNA (Life Technologies). […] The PCR reaction contained 10 ng of reverse-transcribed RNA, 2× IQ™ SYBRGreen Supermix (BioRad, Barcelona, Spain) and 900 nmol/L concentration of each primer. Optical primer amplification efficiency for each primer set was assessed and a dissociation protocol was carried out to assure a single PCR product. PCR assays were performed on a MiniOpticon™ Real-Time PCR system (BioRad). Thermal cycling conditions were as follows: activation of Taq DNA polymerase at 95° C. for 10 min, followed by 40 cycles of amplification at 95° C. for 15 sec and 60° C. for 1 min. The relative levels of specific mRNA were estimated from the value of the threshold cycle (Ct) of the real-time PCR adjusted by that of a housekeeping gene (GAPDH) through the formula […] (ΔCt=Gene of interest Ct-GAPDH Ct). Cf.

CYP2C19, sequence (P33261 whole entry): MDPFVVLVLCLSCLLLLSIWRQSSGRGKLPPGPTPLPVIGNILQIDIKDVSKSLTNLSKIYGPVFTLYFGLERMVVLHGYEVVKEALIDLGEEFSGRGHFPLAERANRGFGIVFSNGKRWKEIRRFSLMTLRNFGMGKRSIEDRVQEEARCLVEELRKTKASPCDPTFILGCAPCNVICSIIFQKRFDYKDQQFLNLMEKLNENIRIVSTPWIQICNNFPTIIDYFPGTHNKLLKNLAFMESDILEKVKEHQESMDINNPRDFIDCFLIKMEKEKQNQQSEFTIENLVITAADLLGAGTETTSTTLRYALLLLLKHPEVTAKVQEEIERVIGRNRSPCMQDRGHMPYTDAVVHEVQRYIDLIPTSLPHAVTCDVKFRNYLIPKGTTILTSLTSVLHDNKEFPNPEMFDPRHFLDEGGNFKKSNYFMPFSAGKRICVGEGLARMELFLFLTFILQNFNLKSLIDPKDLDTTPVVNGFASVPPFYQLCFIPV

For `CC(C)S(=O)(=O)N1CCC(NC(=O)NC23CC4CC(CC(C4)O2)C3)CC1` [Io, 1-(2-oxaadamant-1-yl)-3-(1-(isopropylsulfonyl)piperidin-4-yl)urea], in data set [1], the solubility was above 100 µM. Also, in data set [2], the CC50 at 72 h was above 100 µM. Further, the CNS prediction result in data set [3] is “CNS− (compounds of low BBB permeation (CNS−): Pe (10^6 cm s^−1)<2.107)”. In addition, the inhibition at 1 µM in data set [4] and in data set [6] was at most 6% throughout. In addition, the inhibition at 100 µM in data set [5] worked out at 40.9 ± 1.99%.

On to `O=C(Nc1ccc(F)c(F)c1F)NC12CC3CC(CC(C3)O1)C2` [Ia, 1-(2-oxaadamantan-1-yl)-3-(2,3,4-trifluorophenyl)urea], for which the solubility in data set [1] was 77 µM (≈ 25.1 µg/mL). For the same molecule, the CC50 at 72 h in data set [2] was above 100 µM. In addition, in data set [7], the “Level of CHOP mRNA” value is listed as 129.9 ± 37.6^(###), the “Level of BiP mRNA” value is listed as 129.0 ± 20.5^(###) and the “Level of ATF3 mRNA” value is 191.4 ± 22.6^(###). In addition, the CNS prediction result in data set [3] is reported as “CNS+ (Compounds of high BBB permeation (CNS+): Pe (10^6 cm s^−1)>5.181)”. In data set [4], this molecule came in with an inhibition at 1 µM of at most 6%. In addition, the inhibition at 100 µM in data set [5] stood at 35.8 ± 4.7%. In data set [6], the inhibition at 1 µM is at most 6%.

Take `O=C(NC1CCN(C(=O)c2ccccc2F)CC1)NC12CC3CC(CC(C3)O1)C2` [Is, 1-(2-oxaadamant-1-yl)-3-(1-(2-fluorobenzoyl)piperidin-4-yl)urea]: the solubility in data set [1] was above 100 µM. Moreover, the CC50 at 72 h in data set [2] is above 100 µM. Besides, in data set [3], the CNS prediction entry was “CNS− (compounds of low BBB permeation (CNS−): Pe (10^6 cm s^−1)<2.107)”. Also, the inhibition at 1 µM in data set [4] and in data set [6] was at most 6% throughout. In addition, the inhibition at 100 µM in data set [5] came to 45.3 ± 3.5%.

For `O=C(Nc1ccc(Cl)c(C(F)(F)F)c1)NC12CC3CC(CC(C3)O1)C2` [Iv, 1-(2-oxaadamantan-1-yl)-3-(4-chloro-3-(trifluoromethyl)phenyl)urea], the solubility in data set [1] was 60 µM (≈ 22.5 µg/mL). For the same molecule, the CC50 at 72 h in data set [2] is 45.8 ± 3.8 µM. For the same molecule, in data set [3], the CNS prediction result is “CNS+ (Compounds of high BBB permeation (CNS+): Pe (10^6 cm s^−1)>5.181)”. In addition, the inhibition at 1 µM in data set [4] and in data set [6] was at most 6% each time. Moreover, in data set [5], the inhibition at 100 µM was 51.6 ± 6.6%.

Consider `O=C(Nc1cc(Cl)cc(OC(F)(F)F)c1)NC12CC3CC(CC(C3)O1)C2` [Iu], for which, in data set [1], the solubility was 45 µM (≈ 17.6 µg/mL). Further, the inhibition at 1 µM in data set [4] and in data set [6] was at most 6% each time.

Turning to `O=C(Nc1ccc(F)c(F)c1F)NC1C2CC3CC(C2)CC1C3` (centres unmarked) [Std 2, 1-(Adamantan-2-yl)-3-(2,3,4-trifluorophenyl)urea, reference compound], in data set [7], the “Level of CHOP mRNA” value was 141.8 ± 23.7^(###), the “Level of BiP mRNA” value was 135.1 ± 16.2^(###) and the “Level of ATF3 mRNA” value is recorded as 225.6 ± 21.2^(###).

For `O=C(Nc1ccc(F)c(F)c1F)NC12CC3CC(CC(C3)C1)C2` [Std 1, 1-(Adamantan-1-yl)-3-(2,3,4-trifluorophenyl)urea, reference compound], the solubility in data set [1] is 66 µM (≈ 21.4 µg/mL). Moreover, the inhibition at 100 µM in data set [5] stood at 56.6 ± 11%.

For the molecule `O=C(Nc1cccc(S(F)(F)(F)(F)F)c1)NC12CC3CC(CC(C3)O1)C2` [Ix, 1-(2-oxaadamantan-1-yl)-3-(3-(pentafluoro-λ^6-sulfanyl)phenyl)urea], the solubility in data set [1] was above 100 µM. For the same molecule, the inhibition at 1 µM in data set [4] and in data set [6] was at most 6% throughout.

Broadly, the solubility is the concentration that dissolves in the medium under given conditions. The inhibition is the relative decrease from the control value, in per cent.
